{"source": "patent US20260258087A1", "about": "“PHARMACEUTICAL COMPOSITION FOR PREVENTING OR TREATING HEPATITIS B” (GWANGJU INSTITUTE OF SCIENCE AND TECHNOLOGY, priority 2022, published 2026)", "key": {"[1]": {"experiment": "Caco-2 permeability assay", "conditions": "human"}, "[2]": {"test_system": "HBV", "assay_type": "cell-based, Hepatitis B virus", "conditions": "HepG2-NTCP cells", "experimental": "HepG2 cells are representative cells that have immortalized human liver cells, and HepG2-NTCP cells refer to cells that overexpress sodium-taurocholate cotransporting polypeptide (NTCP). HepG2-NTCP cells are representative cells used to confirm the effect of inhibiting HBV host invasion.\nHepG2-NTCP cells were grown in DMEM medium containing 10% FBS, penicillin (100 U), and streptomycin (0.1 mg/mL) at 37° C. with […]. […] The HepG2-NTCP cells were incubated with cyclic peptides in 12-well plates for 2 hours. Afterwards, the cells were infected by treating HBV particles (2×10^6 virus/mL) and cyclic peptide together and cultured for 3 hours. After removing the medium containing the virus, the cells were cultured for 16 hours. After the cells were treated with cyclic peptide, intracellular HBV DNA was extracted, purified, and quantified using a gene amplification test. To isolate HBV DNA from host cells, cells were lysed with cell lysis buffer (50 mM Tris-HCl, pH 7.5, 1 mM EDTA, 1% NP40) for 10 minutes on ice. […]. Micrococcal nuclease was inactivated by adding EGTA to a final concentration of […]. Afterwards, intracellular DNA of HBV was extracted using the G-SPIN™ set. […]\nIn vitro HBV entry inhibition assay based on quantification of intracellular DNA of HBV was performed. […]\nThe IC50 values are expressed as mean±SD. […]"}}, "data": [{"molecule": "CN(C)C(=O)C(CCN1CCC(O)(c2ccc(Cl)cc2)CC1)(c1ccccc1)c1ccccc1", "note": "[loperamide]", "values": [{"measurement": "Papp A→B at 2 h, 10 μM", "setting": "[1]; Caco-2", "result": "2.9 ± 2", "unit": "×10⁻⁶ cm/s"}, {"measurement": "Papp B→A at 2 h, 10 μM", "setting": "[1]; Caco-2", "result": "27.5 ± 1.6", "unit": "×10⁻⁶ cm/s"}, {"measurement": "efflux ratio at 2 h, 10 μM", "setting": "[1]; Caco-2", "result": 10}, {"measurement": "recovery at 2 h, 10 μM", "setting": "[1]; Caco-2, A to B % recovery, A to B", "result": "88 ± 6", "unit": "%"}, {"measurement": "recovery at 2 h, 10 μM", "setting": "[1]; Caco-2, A to B with verapamil % recovery, A to B, 100 μM verapamil", "result": "78 ± 1", "unit": "%"}, {"measurement": "recovery at 2 h, 10 μM", "setting": "[1]; Caco-2, B to A % recovery, B to A", "result": "85 ± 1", "unit": "%"}]}, {"molecule": "Cyclosporine A [CsA]", "values": [{"measurement": "HBV inhibition (%)", "setting": "[2]; 1 μM, intracellular HBV DNA, n=3", "result": "83 ± 8", "unit": "%"}, {"measurement": "IC50", "setting": "[2]; mean±SD, read-out: In vitro HBV entry inhibition (IC50)", "result": "400 ± 30", "unit": "nM"}]}]}
